Key:
HIV-1Ba-L = experiment: Inhibition of virus replication in MAGI-CCR5 cells (β-galactosidase reporter); assay type: cell-based; conditions: HIV-1Ba-L in MAGI-CCR5 cells; for IC50: Human immunodeficiency virus 1, 48 hours, β-galactosidase reporter expression, read-out: IC50
Procedure: (§1) The anti-viral activity of dihydropyrimidines was shown by inhibition of virus replication in MAGI-CCR5 cells. MAGI-CCR5 cells are derived from HeLa-CD4-LTR-β-galactosidase cells. The cells have been engineered to express high levels of CD4 and CCR5 and contain one copy of the HIV-1 LTR promoter driving expression of the β-galactosidase gene upon HIV-1 Tat transactivation. On the day preceding the assay, the cells were plated at 1.0×10^4 cells per well and maintained at 37° C. and 5% CO2 in a humidified incubator. Total cell count and viability was visually assessed using a hemacytometer and trypan blue exclusion.
Compounds were evaluated at six concentrations (triplicate wells/concentration). On the day of assay setup, compound dilutions were prepared at two-times (2×) the final concentrations. Media was decanted and wells were replenished with 50 μl of 2× compounds, followed by the addition of 50 μl of diluted virus. Identical uninfected assays were prepared for parallel cytotoxicity testing.
Evaluation of Dihydropyrimidines vs. HIV-1Ba-L in MAGI-CCR5 Cells

[1] = Cytotoxicity by MTS staining in uninfected MAGI-CCR5 cells; assay type: cell-based; conditions: human, read-out: TC50
Procedure: as §1, with “exclusion. Compounds were evaluated at six concentrations (triplicate wells/concentration). On the day of assay setup, compound dilutions were prepared at two-times (2×) the final concentrations. Media was decanted and wells were replenished with 50 μl of 2× compounds, followed by the addition of 50 μl of diluted virus. Identical uninfected assays were prepared for parallel cytotoxicity testing.” for “exclusion.”

| SMILES | TI (TC50/IC50) (HIV-1Ba-L) | IC50 (HIV-1Ba-L) | CC50 at 48 h [1] |
| --- | --- | --- | --- |
| CC1=C(c2nc(-c3ccc(C#N)cc3)cs2)C(c2cccnc2Cl)NC(=O)N1 (stereo not drawn) [Example 4] | C (C < 50.0 to 10.0) | 1 to 5 µM | ≥ 100 µM |
| CC1=C(c2nc(-c3ccc(C#N)cc3)cs2)C(c2cc3ccccc3nc2Cl)NC(=O)N1 (stereo not drawn) [Example 5] | D (D < 10.0) | 5 to 100 µM | ≥ 100 µM |
| CC1=C(c2nc(-c3ccc(C#N)cc3)cs2)C(c2ccc3ccccc3n2)NC(=O)N1 (stereo not drawn) [Example 6] | C (C < 50.0 to 10.0) | 1 to 5 µM | ≥ 100 µM |
| CC1=C(c2nc(-c3ccc(C#N)cc3)cs2)C(c2ccccn2)NC(=O)N1 (stereo not drawn) [Example 7] | C (C < 50.0 to 10.0) | 1 to 5 µM | ≥ 100 µM |
| CC1=C(c2nc(-c3ccc(C#N)cc3)cs2)C(c2cccnc2)NC(=O)N1 (stereo not drawn) [Example 8] | C (C < 50.0 to 10.0) | 1 to 5 µM | ≥ 100 µM |
| CC1=C(c2nc(-c3ccc(C#N)cc3)cs2)C(c2ccncc2)NC(=O)N1 (stereo not drawn) [Example 9] | C (C < 50.0 to 10.0) | 1 to 5 µM | ≥ 100 µM |
| CC1=C(c2nc(-c3ccc(C#N)cc3)cs2)C(c2cc3ccccc3s2)NC(=O)N1 (stereo not drawn) [Example 12] | C (C < 50.0 to 10.0) | 1 to 5 µM | ≥ 100 µM |
| CC1=C(c2nc(-c3ccc(C#N)cc3)cs2)C(c2cc(Br)cs2)NC(=O)N1 (stereo not drawn) [Example 13] | D (D < 10.0) | 5 to 100 µM | ≥ 100 µM |
| CC1=C(c2nc(-c3ccc(C#N)cc3)cs2)C(c2cccs2)NC(=O)N1 (stereo not drawn) [Example 14] | C (C < 50.0 to 10.0) | 5 to 100 µM | ≥ 100 µM |
| CC1=C(c2nc(-c3ccc(C#N)cc3)cs2)C(c2nccn2C)NC(=O)N1 (stereo not drawn) [Example 16] | D (D < 10.0) | > 100 µM | ≥ 100 µM |
| CC1=C(c2nc(-c3ccc(C#N)cc3)cs2)C(c2cncc(F)c2)NC(=O)N1 (stereo not drawn) [Example 20] | A (A = TI (TC50/IC50) ≧ 100.0) | < 1 µM | ≥ 100 µM |
| CC1=C(c2nc(-c3ccc(C#N)cc3)cs2)C(c2cc(=O)[nH]c(=O)[nH]2)NC(=O)N1 (stereo not drawn) [Example 22] | D (D < 10.0) | > 100 µM | ≥ 100 µM |
| CC1=C(c2nc(-c3ccc(C#N)cc3)cs2)C(c2ccnc(Cl)c2)NC(=O)N1 (stereo not drawn) [Example 24] | C (C < 50.0 to 10.0) | 5 to 100 µM | ≥ 100 µM |
| COc1ncccc1C1NC(=O)NC(C)=C1c1nc(-c2ccc(C#N)cc2)cs1 (stereo not drawn) [Example 27] | C (C < 50.0 to 10.0) | 5 to 100 µM | ≥ 100 µM |
| COc1ncc(C2NC(=O)NC(C)=C2c2nc(-c3ccc(C#N)cc3)cs2)cn1 (stereo not drawn) [Example 31] | C (C < 50.0 to 10.0) | 1 to 5 µM | ≥ 100 µM |
| COc1ncc(C2NC(=O)NC(C)=C2c2nc(-c3ccc(C#N)cc3)cs2)c(OC)n1 (stereo not drawn) [Example 32] | D (D < 10.0) | 5 to 100 µM | ≥ 100 µM |
| CC1=C(c2nc(-c3cccs3)cs2)C(c2cccc(O)c2)NC(=O)N1 (stereo not drawn) [Example 37] | D (D < 10.0) | 5 to 100 µM | ≥ 100 µM |
| COc1ccc(-c2csc(C3=C(C)NC(=O)NC3c3ccccc3)n2)cc1 (stereo not drawn) [Example 39] | D (D < 10.0) | 5 to 100 µM | ≥ 100 µM |

From patent US9120787B2, “HIV replication inhibitors” (priority 2011, dated 2015)
